Bounds are passed on as bounds.

In the test the test system is HT29 cells. As to the kind of experiment: Inhibition of cell necrosis (CCK8 method), induced programmed necrosis of HT29 cells. The settings on record: Homo sapiens, HT-29; rescue from necrosis induced by TNF-α 20 ng/mL, AT-406 1 μM, Z-VAD-FMK 20 μM; 16-20 hours; CCK-8, OD 450 nm. The format is cell-based. A digest of the protocol:
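HT29 cells in McCOY's 5A with 10% FBS were pre-treated for 30 min with compound (9 fourfold steps, 25000 to 0.38 nM final, 0.25% DMSO). Necrosis was then induced with TNF-α 20 ng/mL, AT-406 1 μM and Z-VAD-FMK 20 μM for 16-20 h. Viability was read by CCK-8 OD450, normalized between uninduced and induced wells, and IC50 was curve-fitted.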
With `Cc1ccc(C2CCOCC2)cc1-c1ccnc(NC(=O)c2nnc(Cc3ccccc3)[nH]2)c1` [Example 479, 5-benzyl-N-(4-(2-methyl-5-(tetrahydro-2H-pyran-4-yl)phenyl)pyridin-2-yl)-4H-1,2,4-triazole-3-carboxamide], the IC50 is 100 to 1000 nM.
In the case of `COC(=O)C=Cc1ccc(C)c(-c2ccnc(NC(=O)c3nnc(Cc4ccccc4)[nH]3)c2)c1` [Example 480, Methyl 3-(3-(2-(5-benzyl-4H-1,2,4-triazol-3-carboxamido)pyridin-4-yl)-4-methylphenyl)acrylate], the IC50 is at most 100 nM.
The figure for `COC(=O)CCc1ccc(C)c(-c2ccnc(NC(=O)c3nnc(CC4CCCC4)[nH]3)c2)c1` [Example 481, Methyl 3-(3-(2-(5-(cyclopentylmethyl)-4H-1,2,4-triazol-3-carboxamido)pyridin-4-yl)-4-methylphenyl)propionate] is 100 to 1000 nM.
The figure for `Cc1ccc(CCC(C)(C)O)cc1-c1ccnc(NC(=O)c2nnc(Cc3ccccc3)[nH]2)c1` [Example 482, 5-benzyl-N-(4-(5-(3-hydroxyl-3-methylbutyl)-2-methylphenyl)pyridin-2-yl)-4H-1,2,4-triazole-3-carboxamide] is at most 100 nM.
The same measure for `Cc1ccc(CCCO)cc1-c1ccnc(NC(=O)c2nnc(Cc3ccccc3)[nH]2)c1` [Example 483, 5-benzyl-N-(4-(5-(3-hydroxylpropyl)-2-methylphenyl)pyridin-2-yl)-4H-1,2,4-triazole-3-carboxamide]: 100 to 1000 nM; for `COCCCC(O)c1ccc(C)c(-c2ccnc(NC(=O)c3nnc(Cc4ccccc4)[nH]3)c2)c1` (centres unmarked) [Example 484, 5-benzyl-N-(4-(5-(1-hydroxyl-4-methoxybutyl)-2-methylphenyl)pyridin-2-yl)-4H-1,2,4-triazole-3-carboxamide]: at most 100 nM; for `Cc1ccc(C(=O)CC2CCOCC2)cc1-c1ccnc(NC(=O)c2nnc(Cc3ccccc3)[nH]2)c1` [Example 485, 5-benzyl-N-(4-(2-methyl-5-(2-(tetrahydro-2H-pyran-4-yl)acetyl)phenyl)pyridin-2-yl)-4H-1,2,4-triazole-3-carboxamide]: 100 to 1000 nM.
For `Cc1ccc(C(=O)CC2CCOCC2)cc1-c1ccnc(NC(=O)c2nnc(CC3CCCC3)[nH]2)c1` [Example 486, 5-(cyclopentylmethyl)-N-(4-(2-methyl-5-(2-(tetrahydro-2H-pyran-4-yl)acetyl)phenyl)pyridin-2-yl)-4H-1,2,4-triazole-3-carboxamide], the IC50 is at most 100 nM.
The figure for `Cc1ccc(C(=O)NCCC(C)(C)O)cc1-c1ccnc(NC(=O)c2nnc(Cc3ccccc3)[nH]2)c1` [Example 487, 5-benzyl-N-(4-(5-((3-hydroxyl-3-methylbutyl)carbamoyl)-2-methylphenyl)pyridin-2-yl)-4H-1,2,4-triazole-3-carboxamide] is 100 to 1000 nM.
The same measure for `Cc1ccc(C(=O)NCCC(C)(C)O)cc1-c1ccnc(NC(=O)c2nnc(CC3CCCC3)[nH]2)c1` [Example 488, 5-(cyclopentylmethyl)-N-(4-(5-((3-hydroxyl-3-methylbutyl)carbamoyl)-2-methylphenyl)pyridin-2-yl)-4H-1,2,4-triazole-3-carboxamide]: at most 100 nM; for `Cc1ccc(NC(=O)CCC(C)(C)O)cc1-c1ccnc(NC(=O)c2nnc(Cc3ccccc3)[nH]2)c1` [Example 489, 5-benzyl-N-(4-(5-(4-hydroxy-4-methylvaleramido)-2-methylphenyl)pyridin-2-yl)-4H-1,2,4-triazole-3-carboxamide]: 100 to 1000 nM; for `Cc1ccc(NC(=O)CCC(C)(C)O)cc1-c1ccnc(NC(=O)c2nnc(CC3CCCC3)[nH]2)c1` [Example 490, 5-(cyclopentylmethyl)-N-(4-(5-(4-hydroxy-4-methylvaleramido)-2-methylphenyl)pyridin-2-yl)-4H-1,2,4-triazole-3-carboxamide]: at most 100 nM.
The figure for `Cc1ccc(OCCCC(C)(C)O)cc1-c1ccnc(NC(=O)c2nnc(Cc3cccc(Cl)c3F)[nH]2)c1` [Example 491, 5-(3-chloro-2-fluorobenzyl)-N-(4-(5-((4-hydroxy-4-methylpentyl)oxy)-2-methylphenyl)pyridin-2-yl)-4H-1,2,4-triazole-3-carboxamide] is 100 to 1000 nM; for `Cc1ccc(OCCCC(C)(C)O)cc1-c1cc(NC(=O)c2nnc(Cc3ccccc3F)[nH]2)ncc1F` [Example 492, N-(5-fluoro-4-(5-((4-hydroxy-4-methylpentyl)oxy)-2-methylphenyl)pyridin-2-yl)-5-(2-fluorobenzyl)-4H-1,2,4-triazole-3-carboxamide] it is at most 100 nM; for `Cc1ccc(OCCCC(C)(C)O)cc1-c1cc(NC(=O)c2nnc(CC3CCCCC3)[nH]2)ncc1F` [Example 493, 5-(cyclohexylmethyl)-N-(5-fluoro-4-(5-((4-hydroxy-4-methylpentyl)oxy)-2-methylphenyl)pyridin-2-yl)-4H-1,2,4-triazole-3-carboxamide] it is at most 100 nM.
As for `Cc1ccc(OCCCCC(C)(C)O)cc1-c1cc(NC(=O)c2nnc(Cc3ccccc3F)[nH]2)ncc1F` [Example 494, N-(5-fluoro-4-(5-((5-hydroxyl-5-methylhexyl)oxy)-2-methylphenyl)pyridin-2-yl)-5-(2-fluorobenzyl)-4H-1,2,4-triazole-3-carboxamide], the IC50 is at most 100 nM.
The figure for `Cc1ccc(OCCCCC(C)(C)O)cc1-c1cc(NC(=O)c2nnc(CC3CCCCC3)[nH]2)ncc1F` [Example 495, 5-(cyclohexylmethyl)-N-(5-fluoro-4-(5-((5-hydroxyl-5-methylhexyl)oxy)-2-methylphenyl)pyridin-2-yl)-4H-1,2,4-triazole-3-carboxamide] is at most 100 nM; for `Cc1ccc(OCC2CCOCC2)cc1-c1cc(NC(=O)c2nnc(Cc3ccccc3F)[nH]2)ncc1F` [Example 496, N-(5-fluoro-4-(2-methyl-5-((tetrahydro-2H-pyran-4-yl)methoxy)phenyl)pyridin-2-yl)-5-(2-fluorobenzyl)-4H-1,2,4-triazole-3-carboxamide] it is at most 100 nM; for `Cc1ccc(OCC2CCOCC2)cc1-c1cc(NC(=O)c2nnc(CC3CCCCC3)[nH]2)ncc1F` [Example 497, 5-(cyclohexylmethyl)-N-(5-fluoro-4-(2-methyl-5-((tetrahydro-2H-pyran-4-yl)methoxy)phenyl)pyridin-2-yl)-4H-1,2,4-triazole-3-carboxamide] it is at most 100 nM.
Compound `Cc1ccc(OCCC2CCOCC2)cc1-c1cc(NC(=O)c2nnc(Cc3ccccc3F)[nH]2)ncc1F` [Example 498, N-(5-fluoro-4-(2-methyl-5-(2-(tetrahydro-2H-pyran-4-yl)ethoxy)phenyl)pyridin-2-yl)-5-(2-fluorobenzyl)-4H-1,2,4-triazole-3-carboxamide] registered an IC50 of at most 100 nM.
The same measure for `Cc1ccc(OCCC2CCOCC2)cc1-c1cc(NC(=O)c2nnc(CC3CCCCC3)[nH]2)ncc1F` [Example 499, N-(5-fluoro-4-(2-methyl-5-(2-(tetrahydro-2H-pyran-4-yl)ethoxy)phenyl)pyridin-2-yl)-5-(cyclohexylmethyl)-4H-1,2,4-triazole-3-carboxamide]: at most 100 nM.
For the compound `CC(C)(O)CCCCOc1ccc(F)c(-c2ccnc(NC(=O)c3nnc(Cc4ccccc4F)[nH]3)c2)c1` [Example 500, N-(4-(2-fluoro-5-((5-hydroxyl-5-methylhexyl)oxy)phenyl)pyridin-2-yl)-5-(2-fluorobenzyl)-4H-1,2,4-triazole-3-carboxamide], the IC50 fell in the range of 100 to 1000 nM.
The same measure for `CC(C)(O)CCCOc1ccc(Cl)c(-c2ccnc(NC(=O)c3nnc(Cc4ccc(F)c(Cl)c4F)[nH]3)c2)c1` [Example 501, 5-(3-chloro-2,4-difluorobenzyl)-N-(4-(2-chloro-5-((4-hydroxy-4-methylpentyl)oxy)phenyl)pyridin-2-yl)-4H-1,2,4-triazole-3-carboxamide]: 100 to 1000 nM; for `CC(C)(O)CCCCOc1ccc(Cl)c(-c2cc(NC(=O)c3nnc(CC4CCCCC4)[nH]3)ncc2F)c1` [Example 502, N-(4-(2-chloro-5-((5-hydroxyl-5-methylhexyl)oxy)phenyl)-5-fluoropyridin-2-yl)-5-(cyclohexylmethyl)-4H-1,2,4-triazole-3-carboxamide]: at most 100 nM.
The same measure for `CC(C)(O)CCCOc1ccc(Cl)c(-c2ccnc(NC(=O)c3nnc(Cc4cc(C5CC5)ccc4F)[nH]3)c2)c1` [Example 503, N-(4-(2-chloro-5-((4-hydroxy-4-methylpentyl)oxy)phenyl)pyridin-2-yl)-5-(5-cyclopropyl-2-fluorobenzyl)-4H-1,2,4-triazole-3-carboxamide]: 1000 to 10000 nM; for `CC(C)(O)CCCOc1ccc(Cl)c(-c2ccnc(NC(=O)c3nnc(Cc4cc(-c5ccccc5)ccc4F)[nH]3)c2)c1` [Example 504, N-(4-(2-chloro-5-((4-hydroxy-4-methylpentyl)oxy)phenyl)pyridin-2-yl)-5-((4-fluoro-[1,1′-biphenyl]-3-yl)methyl)-4H-1,2,4-triazole-3-carboxamide]: 100 to 1000 nM.

The values above are taken from patent US12435060B2, “Acylamino bridged heterocyclic compound, and composition and application thereof” (BEIJING SCITECH-MQ PHARMACEUTICALS LIMITED, priority 2019, dated 2025).
